Test results published in patent US20230416202A1, “Small Molecule Compounds and Compositions” (Telo Therapeutics, Inc., priority 2020, published 2023).
Read-outs that look alike come from different tables or passages of the source.

Legend:
Format in all cases: cell-based, human
[1] = tested on: HepG2 cells; assay: HepG2 cytostatic
[2] = tested on: wt TERT; assay: HEK293T hTERT mRNA assay (qPCR)
Protocol: (§1) HepG2 cells (hepatocyte carcinoma (HCC) cells; with mutated TERT) or HEK293T cells (with wild type (wt) TERT) were seeded at 4,000 cells/well in 96-well plates. The following day, test compounds were added to cells for at concentrations of 25 uM, 12.5 uM, 6.25 uM, 3.125 uM, 1.563 uM, 0.781 uM, 0.391 uM, 0.195 uM, 0.098 uM or vehicle control (0.1% DMSO). Each condition was tested in three replicate wells. 48 hours post drug addition, the cells were harvested for RNA using the 96-Magmax RNA Isolation kit (Cat. No. AM1830). RNA was converted to cDNA using the Superscript III First strand cDNA synthesis kit (Cat. No. 18080051). RNA and cDNA concentration and quality were determined using the NanoQuant nucleic acid quantification method. 500 ng cDNA from each sample was used to detect TERT mRNA via qPCR. GUSB was also measured as an internal control and fold change to vehicle control was determined using the delta CT method.

[3] = tested on: HEK293 cells; assay: HEK293 cytostatic; conditions: for IC50: read-out: wt Tert IC50 uM HEK293 cytostatic
[4] = tested on: Mutant TERT; assay: HepG2 hTERT mRNA assay (qPCR); conditions: Homo sapiens; HepG2 cells (mutated TERT), 48 hours, TERT mRNA via qPCR
Protocol: as §1

[5] = Homo sapiens, HEK-293T, wild type TERT, read-out: wt TERT IC50
[6] = Homo sapiens, HEK293 cells (wt TERT), 48 hours, class symbols, read-out: wt TERT IC50 uM HEK293
[7] = Homo sapiens, HEK293, HEK293 cells

SMILES	IC50 ([1]; Homo sapiens) [µM]	IC50 [2, 5] [µM]	IC50 [2, 6] [µM]	IC50 [3, 7] [µM]	IC50 [4] [µM]	IC50 ([3]; HEK293 cells) [µM]	Cytostatic IC50 uM HepG2 cytostatic [1]	wt Tert IC50 uM HEK293 cytostatic ([3]; HEK293 cells)	IC50 [1] [µM]	IC50 ([2]; HEK293 cells (wt TERT), 48 hours, class symbols, read-out: wt TERT IC50 uM HEK293) [µM]	IC50 ([2]; wild type TERT, read-out: wt TERT IC50) [µM]
COc1ccc([C@H]2C[C@H](CC(=O)O)CN(Cc3ccc(C(F)(F)F)cc3)C2)cc1 (racemic) [Compound 105, 2-((anti)-5-(4-methoxyphenyl)-1-(4-(trifluoromethyl)benzyl)piperidin-3-yl)acetic acid]	5 to 25	> 25	> 25	5 to 25	0.5 to 5	–	–	–	–	–	–
COc1cc([C@H]2C[C@H](CC(=O)O)CN(Cc3ccc(C(F)(F)F)cc3)C2)cc(C(F)(F)F)c1 (racemic) [Compound 106, rac-2-((anti)-5-(3-methoxy-5-(trifluoromethyl)phenyl)-1-(4-(trifluoromethyl)benzyl)piperidin-3-yl)acetic acid]	0.5 to 5	> 25	> 25	5 to 25	0.5 to 5	–	–	–	–	–	–
COc1cc(CN2C[C@H](CC(=O)O)C[C@@H](c3ccc(C(F)(F)F)cc3)C2)cc(C(F)(F)F)c1 [Compound 108, 2-((3S,5S)-1-(3-methoxy-5-(trifluoromethyl)benzyl)-5-(4-(trifluoromethyl)phenyl)piperidin-3-yl)acetic acid]	> 25	> 25	> 25	–	> 25	–	–	–	–	–	–
N#Cc1ccc(CN2C[C@H](CC(=O)O)C[C@@H](c3ccc(C(F)(F)F)cc3)C2)cc1 [Compound 115, 2-((3S,5S)-1-(4-cyanobenzyl)-5-(4-(trifluoromethyl)phenyl)piperidin-3-yl)acetic acid]	0.5 to 5	> 25	> 25	5 to 25	0.5 to 5	–	–	–	–	–	–
N#Cc1ccc([C@@H]2C[C@@H](CC(=O)O)CN(Cc3ccc(C(F)(F)F)cc3)C2)cc1 (racemic) [Compound 107, 2-((anti)-5-(4-cyanophenyl)-1-(4-(trifluoromethyl)benzyl)piperidin-3-yl)acetic acid]	5 to 25	> 25	> 25	> 25	5 to 25	–	–	–	–	–	–
CC(C(=O)O)[C@@H]1C[C@@H](c2ccc(C(F)(F)F)cc2)CN(Cc2ccc(C(F)(F)F)cc2)C1 (single isomer, unassigned) [Compound 113]	0.5 to 5	> 25	> 25	–	0.5 to 5	5 to 25	–	–	–	–	–
COc1ccc(CN2C[C@H](CC(=O)O)C[C@@H](c3ccc(C(F)(F)F)cc3)C2)cc1 [Compound 109]	0.5 to 5	> 25	> 25	5 to 25	> 25	–	–	–	–	–	–
O=C(O)C[C@H]1C[C@H](c2ccc(C(F)(F)F)cc2)CN(Cc2ccc(C(F)(F)F)cc2)C1 [Compound 102, 2-((3R,5R)-1-(4-(trifluoromethyl)benzyl)-5-(4-(trifluoromethyl)phenyl)piperidin-3-yl)acetic acid]	5 to 25	> 25	> 25	5 to 25	5 to 25	–	–	–	–	–	–
O=C(O)CC1CC(c2ccc(C(F)(F)F)cc2)CN(Cc2ccc(C(F)(F)F)cc2)C1 (racemic) [Compound 100, rac-2-((anti)-1-(4-(trifluoromethyl)benzyl)-5-(4-(trifluoromethyl)phenyl)piperidin-3-yl)acetic acid]	–	> 25	> 25	–	0.5 to 5	–	“++”-“+”	“++”-“+”	–	–	–
COc1cccc([C@H]2C[C@H](CC(=O)O)CN(Cc3ccc(C(F)(F)F)cc3)C2)c1 (racemic) [Compound 103, 2-((anti)-5-(3-methoxyphenyl)-1-(4-(trifluoromethyl)benzyl)piperidin-3-yl)acetic acid]	5 to 25	> 25	> 25	5 to 25	> 25	–	–	–	–	–	–
O=C(O)C[C@H]1C[C@H](c2cccc(C(F)(F)F)c2)CN(Cc2ccc(C(F)(F)F)cc2)C1 (racemic) [Compound 104, rac-2-((anti)-1-(4-(trifluoromethyl)benzyl)-5-(3-(trifluoromethyl)phenyl)piperidin-3-yl)acetic acid]	5 to 25	> 25	> 25	5 to 25	–	–	–	–	–	–	–
CC(C(=O)O)[C@@H]1C[C@@H](c2ccc(C(F)(F)F)cc2)CN(Cc2ccc(C(F)(F)F)cc2)C1 (single isomer, unassigned) [Compound 114]	–	–	–	–	–	0.5 to 5	–	–	0.5 to 5	> 25	> 25
C#Cc1ccc(CN2C[C@H](CC(=O)O)C[C@@H](c3ccc(C(F)(F)F)cc3)C2)cc1 [Compound 112, 2-((3S,5S)-1-(4-ethynylbenzyl)-5-(4-(trifluoromethyl)phenyl)piperidin-3-yl)acetic acid]	0.5 to 5	> 25	> 25	> 25	< 0.5	–	–	–	–	–	–
